# Test results: patent publication US5047397A, “Linear analogs of atrial natriuretic peptides” (California Biotechnology Inc., priority 1988, dated 1991)
# Where a SMILES comes first, the peptide text is derived from it. Bridges are numbered along the chain shown (N, C = ends). Where no end group is shown, it is not given here.
# Legend:
# [1] = system: isolated perfused rat kidney; assay: Natriuresis and diuresis in the isolated perfused rat kidney; conditions: for FENa (fractional sodium excretion) / FF (filtration fraction) / GFR (glomerular filtration rate) / RVR (renal vascular resistance) / UNa V (urinary sodium excretion rate) / V (urine flow rate): N=4
# Source text: The results are in Table 2C.
# [2] = system: cortical-associated receptor sites of the kidney; assay: Competition for specific (125I)-rANP(123-150) binding in the kidney; set-up: species or system rat; conditions: competitor 10^-7 M, tracer 4 × 10^-12 M, n=3; for RATIO OF BOUND/FREE (125I)-rANP(123-150), Whole Kidney: tracer alone 122 ± 46; for RATIO OF BOUND/FREE (125I)-rANP(123-150), Outer Cortex: tracer alone 176 ± 23
# [3] = biological target: T1, specific ANP receptor sites on BASM or BAE cells (Bos taurus, UniProt P10730); assay: Competitive displacement receptor binding of (125I)-rANP(126-150) on cultured cells; set-up: species or system bovine; conditions: Table 2A; unit not given; in nM
# T1 construct: specific receptor sites on BASM or BAE cells; endogenous in cells; host or cells: cultured BASM and BAE cells
# T1 sequence (P10730 42-537): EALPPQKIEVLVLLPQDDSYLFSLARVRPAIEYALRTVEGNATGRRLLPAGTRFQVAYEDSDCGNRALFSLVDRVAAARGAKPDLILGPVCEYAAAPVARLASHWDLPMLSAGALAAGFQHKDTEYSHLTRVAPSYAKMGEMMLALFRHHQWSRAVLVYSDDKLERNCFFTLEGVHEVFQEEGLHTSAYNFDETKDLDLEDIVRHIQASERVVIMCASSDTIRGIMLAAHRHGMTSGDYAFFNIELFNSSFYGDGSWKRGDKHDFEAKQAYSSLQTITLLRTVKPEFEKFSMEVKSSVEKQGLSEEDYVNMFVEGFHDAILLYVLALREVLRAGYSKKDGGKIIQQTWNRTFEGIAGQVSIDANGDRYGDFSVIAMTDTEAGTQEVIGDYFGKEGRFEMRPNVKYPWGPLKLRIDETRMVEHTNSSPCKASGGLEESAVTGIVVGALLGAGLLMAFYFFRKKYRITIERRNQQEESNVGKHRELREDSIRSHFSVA
# Source text: Analogous "competitive displacement" receptor binding assays are considered commonplace in the art for examining specific ligand-receptor interactions.
# Assuming these ANP analogs act at one or more ANP receptor sites, then increased receptor affinity should reflect increased biological potency.
# anesthetized rats = assay: Diuresis in anesthetized rats; assay type: in vivo, rat; conditions: dose not stated
# Description: In one set of examples, cannulae were placed in the left and right ureters and femoral vein of anesthetized rats and urine was collected from the ureters. Analog peptides were administered via the femoral vein. Prior to infusing the analog peptides, saline was infused for 30 minutes, urine was collected for 6 five-minute baseline periods and urine volume was determined gravimetrically. Following these baseline collection periods, various analog peptides were infused for 30 or 60 minutes and urine volume was measured in five-minute periods during infusion and for 60 minutes following infusion (at which time rats were returned to saline). Data was examined by averaging urine flow rates for six five-minute baseline control periods immediately preceding infusion, and comparing values during and after administration of peptides with the "baseline" control values. Responses to peptides are thus evaluated and plotted as the percent of baseline control responses. Specific examples are shown in FIGS. 3A-H. The error bars at the beginning of the graphs represent baseline values +standard deviations. Responses to peptides that are substantially above baseline ±SD can thus be interpreted as being statistically significant increases.
# [4] = rANP(123-150) 10^-8 M in presence of AP57 10^-7 M
# [5] = rANP(123-150) 10^-8 M, mean ± SE
# [6] = rANP(123-150) 10^-9 M in presence of AP57 10^-7 M
# [7] = rANP(123-150) 10^-9 M, mean ± SE
# [8] = rANP(123-150) 10^-10 M in presence of AP57 10^-7 M
# [9] = rANP(123-150) 10^-10 M, mean ± SE
# [10] = rANP(123-150) 10^-11 M in presence of AP57 10^-7 M
# [11] = rANP(123-150) 10^-11 M, mean ± SE
# [12] = [C] period of section D: AP57 10^-7 M present, before rANP(123-150)
molecule,measurement,setting,value
"rANP(123-150): sequence of ANP(126-150) which includes 3 additional upstream amino acids of the naturally occurring peptide (SLRRSSCFGGRIDRIGAQSGLGCNSFRY; not fully specified; ends and bridges not checked; UniProt P01161 123-150, looked up, fragment)",FENa (fractional sodium excretion),[1]; [4],4.77 ± 1.22%
same,FF (filtration fraction),[1]; [4],2.30 ± 0.47%
same,GFR (glomerular filtration rate),[1]; [4],0.84 ± 0.13 mL/min
same,RVR (renal vascular resistance),[1]; [4],2.63 ± 0.33 mmHg/ml/min
same,UNa V (urinary sodium excretion rate),[1]; [4],6.47 ± 2.29 uEq/min
same,V (urine flow rate),[1]; [4],132 ± 33 µL/min
same,FENa (fractional sodium excretion),[1]; [5],4.12 ± 0.94%
same,FF (filtration fraction),[1]; [5],2.23 ± 0.44%
same,GFR (glomerular filtration rate),[1]; [5],0.80 ± 0.08 mL/min
same,RVR (renal vascular resistance),[1]; [5],2.66 ± 0.32 mmHg/ml/min
same,UNa V (urinary sodium excretion rate),[1]; [5],4.78 ± 1.15 uEq/min
same,V (urine flow rate),[1]; [5],96.6 ± 24.0 µL/min
same,FENa (fractional sodium excretion),[1]; [6],4.08 ± 0.72%
same,FF (filtration fraction),[1]; [6],2.81 ± 0.40%
same,GFR (glomerular filtration rate),[1]; [6],0.99 ± 0.07 mL/min
same,RVR (renal vascular resistance),[1]; [6],2.79 ± 0.34 mmHg/ml/min
same,UNa V (urinary sodium excretion rate),[1]; [6],6.03 ± 1.37 uEq/min
same,V (urine flow rate),[1]; [6],139 ± 14 µL/min
same,FENa (fractional sodium excretion),[1]; [7],2.78 ± 0.89%
same,FF (filtration fraction),[1]; [7],2.30 ± 0.41%
same,GFR (glomerular filtration rate),[1]; [7],0.82 ± 0.07 mL/min
same,RVR (renal vascular resistance),[1]; [7],2.64 ± 0.35 mmHg/ml/min
same,UNa V (urinary sodium excretion rate),[1]; [7],3.22 ± 0.92 uEq/min
same,V (urine flow rate),[1]; [7],74.0 ± 14.8 µL/min
same,FENa (fractional sodium excretion),[1]; [8],1.33 ± 0.20%
same,FF (filtration fraction),[1]; [8],2.65 ± 0.20%
same,GFR (glomerular filtration rate),[1]; [8],0.93 ± 0.04 mL/min
same,RVR (renal vascular resistance),[1]; [8],2.80 ± 0.31 mmHg/ml/min
same,UNa V (urinary sodium excretion rate),[1]; [8],1.76 ± 0.25 uEq/min
same,V (urine flow rate),[1]; [8],70.6 ± 4.2 µL/min
same,FENa (fractional sodium excretion),[1]; [9],1.21 ± 0.44%
same,FF (filtration fraction),[1]; [9],1.76 ± 0.29%
same,GFR (glomerular filtration rate),[1]; [9],0.66 ± 0.07 mL/min
same,RVR (renal vascular resistance),[1]; [9],2.51 ± 0.26 mmHg/ml/min
same,UNa V (urinary sodium excretion rate),[1]; [9],1.13 ± 0.43 uEq/min
same,V (urine flow rate),[1]; [9],35.5 ± 5.7 µL/min
same,FENa (fractional sodium excretion),[1]; [10],0.41 ± 0.11%
same,FF (filtration fraction),[1]; [10],2.04 ± 0.15%
same,GFR (glomerular filtration rate),[1]; [10],0.80 ± 0.08 mL/min
same,RVR (renal vascular resistance),[1]; [10],2.50 ± 0.15 mmHg/ml/min
same,UNa V (urinary sodium excretion rate),[1]; [10],0.45 ± 0.10 uEq/min
same,V (urine flow rate),[1]; [10],31.0 ± 3.7 µL/min
same,FENa (fractional sodium excretion),[1]; [11],0.72 ± 0.19%
same,FF (filtration fraction),[1]; [11],1.33 ± 0.20%
same,GFR (glomerular filtration rate),[1]; [11],0.53 ± 0.04 mL/min
same,RVR (renal vascular resistance),[1]; [11],2.36 ± 0.20 mmHg/ml/min
same,UNa V (urinary sodium excretion rate),[1]; [11],0.53 ± 0.14 uEq/min
same,V (urine flow rate),[1]; [11],21.8 ± 1.7 µL/min
same,"RATIO OF BOUND/FREE (125I)-rANP(123-150), Whole Kidney",[2],0.63 ± 0.27
same,"RATIO OF BOUND/FREE (125I)-rANP(123-150), Outer Cortex",[2],0.77 ± 0.30
"CC[C@H](C)[C@@H]1NC(=O)[C@H](CCCNC(=N)N)NC(=O)[C@H](CC(=O)O)NC(=O)[C@H]([C@@H](C)CC)NC(=O)[C@H](CCCNC(=N)N)NC(=O)CNC(=O)CNC(=O)[C@H](Cc2ccccc2)NC(=O)[C@@H](NC(=O)[C@H](CO)NC(=O)[C@H](CO)NC(=O)[C@@H](N)CCCNC(=N)N)CSSC[C@@H](C(N)=O)NC(=O)[C@H](C)NC(=O)CNC1=O [AP57, R-S-S-C-F-G-G-R-I-D-R-I-G-A-C-NH2] (H-RSSCFGGRIDRIGAC-NH2; disulfide 4-15)",Ki,[3],8.2
same,"in vivo diuretic/natriuretic activity in rats, in words",anesthetized rats,natriuretic and diuretic activities
same,"natriuretic/diuretic activity in the isolated perfused rat kidney, in words",[1]; 10^-7 M,not active
same,FENa (fractional sodium excretion),"[1]; AP57 10^-7 M alone, mean ± SE",0.24 ± 0.08%
same,FF (filtration fraction),"[1]; AP57 10^-7 M alone, mean ± SE",1.37 ± 0.22%
same,GFR (glomerular filtration rate),"[1]; AP57 10^-7 M alone, mean ± SE",0.55 ± 0.07 mL/min
same,RVR (renal vascular resistance),"[1]; AP57 10^-7 M alone, mean ± SE",2.27 ± 0.17 mmHg/ml/min
same,UNa V (urinary sodium excretion rate),"[1]; AP57 10^-7 M alone, mean ± SE",0.17 ± 0.04 uEq/min
same,V (urine flow rate),"[1]; AP57 10^-7 M alone, mean ± SE",13.8 ± 2.0 µL/min
same,FENa (fractional sodium excretion),[1]; [12],0.18 ± 0.04%
same,FF (filtration fraction),[1]; [12],1.57 ± 0.27%
same,GFR (glomerular filtration rate),[1]; [12],0.65 ± 0.06 mL/min
same,RVR (renal vascular resistance),[1]; [12],2.21 ± 0.21 mmHg/ml/min
same,UNa V (urinary sodium excretion rate),[1]; [12],0.17 ± 0.05 uEq/min
same,V (urine flow rate),[1]; [12],16.3 ± 2.0 µL/min
same,"modulation of renal responses to rANP(123-150), in words",[1]; pretreatment of the isolated kidney with 10^-7 M AP57,increased the potency of rANP(123-150)
same,"RATIO OF BOUND/FREE (125I)-rANP(123-150), Whole Kidney",[2],1.27 ± 0.32
same,"RATIO OF BOUND/FREE (125I)-rANP(123-150), Outer Cortex",[2],1.68 ± 0.44
